Data from a compilation of properties of binary mixtures (doi:10.1016/j.jct.2016.06.015).

Assay: xn = mol fraction of the nth substance listed
Details: 100 kPa

C1COCCO1 + CC[n+]1ccn(C)c1.F[B-](F)(F)F
x1 = 1
Details | viscosity [mPa·s]
293.15 K | 1.29
298.15 K | 1.18
303.15 K | 1.09
313.15 K | 0.934
333.15 K | 0.718
353.15 K | 0.577

CS(C)=O + CC[n+]1ccn(C)c1.F[B-](F)(F)F
x1 = 1
Details | viscosity [mPa·s]
293.15 K | 2.21
298.15 K | 2.01
303.15 K | 1.84
313.15 K | 1.56
323.15 K | 1.34
333.15 K | 1.17
343.15 K | 1.03
353.15 K | 0.917

CC[n+]1ccn(C)c1.F[B-](F)(F)F + OCCO
viscosity [mPa·s]
Details | x2 = 0 | x2 = 0.099 | x2 = 0.2174 | x2 = 0.283 | x2 = 0.4435 | x2 = 0.5237 | x2 = 0.5876 | x2 = 0.6954 | x2 = 0.7916 | x2 = 0.8751
293.15 K | 50.5 | 36.8 | 26.8 | 23.4 | 18 | 16.5 | 15.8 | – | 15 | 15.8
298.15 K | 41.5 | 30.7 | 22.6 | – | – | 13.8 | 13.1 | – | 12.3 | 12.9
303.15 K | – | 25.9 | 19.3 | 16.9 | 12.9 | 11.8 | 11.1 | 10.3 | 10.3 | 10.8
313.15 K | 24.8 | 19.1 | 14.3 | 12.7 | – | 8.77 | 8.22 | 7.56 | 7.43 | 7.71
323.15 K | 18.6 | 14.6 | 11.2 | 9.9 | – | 6.81 | – | 5.77 | 5.6 | 5.74
333.15 K | 14.5 | 11.5 | 8.98 | 7.96 | – | – | 5.05 | 4.55 | 4.37 | –
343.15 K | 11.7 | 9.32 | 7.34 | 6.53 | – | 4.47 | – | 3.69 | 3.51 | 3.5
353.15 K | – | 7.69 | 6.12 | 5.47 | 4.21 | 3.75 | – | – | – | 2.85

OCCO + CC[n+]1ccn(C)c1.F[B-](F)(F)F
x1 = 1
Details | viscosity [mPa·s]
303.15 K | 14.3
313.15 K | 10
333.15 K | 5.33
353.15 K | 3.24

CC#N + CC[n+]1ccn(C)c1.F[B-](F)(F)F
x1 = 1
Details | viscosity [mPa·s]
293.15 K | 0.386
298.15 K | 0.37
313.15 K | 0.327
323.15 K | 0.302
333.15 K | 0.281
343.15 K | 0.262

CC[n+]1ccn(C)c1.F[B-](F)(F)F + CC#N
viscosity [mPa·s]
Details | x2 = 0 | x2 = 0.0797 | x2 = 0.1787 | x2 = 0.2803 | x2 = 0.3682 | x2 = 0.4903 | x2 = 0.5753 | x2 = 0.7116 | x2 = 0.8301
293.15 K | 50.5 | 37.4 | – | 18.1 | 12.3 | 7.49 | 4.83 | 2.48 | 1.21
298.15 K | 41.5 | 31.1 | 21.4 | 15.6 | 10.7 | 6.64 | 4.38 | 2.29 | –
303.15 K | 34.5 | 26.2 | 18.3 | 13.5 | 9.45 | 5.94 | 4 | 2.11 | 1.08
313.15 K | 24.8 | 19.4 | 14 | – | – | 4.85 | 3.36 | 1.82 | 0.961
323.15 K | – | 14.9 | 11 | – | – | 4.05 | 2.87 | – | 0.866
333.15 K | 14.5 | 11.8 | 8.88 | – | 5.07 | 3.44 | 2.48 | – | 0.785
343.15 K | 11.7 | 9.6 | 7.29 | 5.68 | – | 2.97 | 2.17 | – | –

CC[n+]1ccn(C)c1.F[B-](F)(F)F + CS(C)=O
viscosity [mPa·s]
Details | x2 = 0 | x2 = 0.0872 | x2 = 0.2021 | x2 = 0.2931 | x2 = 0.4098 | x2 = 0.4781 | x2 = 0.5718 | x2 = 0.6689 | x2 = 0.7866 | x2 = 0.8959
293.15 K | 50.5 | 43.1 | 35.1 | 29.5 | 22.8 | – | 14.5 | 10.3 | 6.32 | 3.84
298.15 K | 41.5 | 35.5 | 29.1 | 24.6 | – | 16.1 | 12.3 | 8.84 | 5.55 | 3.43
303.15 K | 34.5 | 29.7 | 24.5 | 20.8 | 16.3 | 13.8 | 10.6 | 7.69 | – | 3.09
313.15 K | – | 21.6 | 18 | – | 12.1 | 10.4 | 8.08 | 5.98 | 3.92 | 2.52
323.15 K | 18.6 | 16.3 | 13.7 | 11.8 | 9.43 | 8.09 | 6.37 | 4.78 | 3.21 | 2.13
333.15 K | 14.5 | 12.8 | 10.8 | 9.36 | 7.53 | 6.5 | 5.15 | 3.91 | 2.68 | 1.83
343.15 K | – | 10.3 | 8.73 | – | 6.16 | 5.33 | 4.24 | 3.24 | 2.28 | –
353.15 K | 9.58 | 8.4 | 7.18 | 6.29 | 5.15 | – | 3.59 | 2.77 | 1.97 | 1.42

CC[n+]1ccn(C)c1.F[B-](F)(F)F + C1COCCO1
viscosity [mPa·s]
Details | 293.15 K | 298.15 K | 303.15 K | 313.15 K | 323.15 K | 333.15 K | 343.15 K | 353.15 K
x2 = 0 | – | 41.5 | – | 24.8 | – | 14.5 | 11.7 | 9.58
x2 = 0.1664 | 35.8 | 29.8 | – | 18.5 | 14.3 | 11.1 | 8.96 | 7.38
x2 = 0.2149 | 32.1 | – | – | – | 13 | 10.3 | 8.38 | 6.91
x2 = 0.3162 | 24.9 | 21 | 18.1 | 13.6 | 10.6 | 8.52 | 6.97 | 5.81
x2 = 0.3591 | 22.2 | 18.8 | 16.2 | 12.3 | 9.69 | – | 6.41 | 5.37
x2 = 0.5077 | 13.8 | 12 | 10.5 | 8.21 | – | – | 4.53 | 3.86
x2 = 0.5453 | 12.2 | 10.6 | – | 7.33 | – | 4.9 | 4.12 | –
x2 = 0.6708 | 7.1 | 6.42 | 5.51 | 4.48 | 3.86 | 3.11 | 2.65 | 2.3
